Data published in patent publication US20210371451A1, “CYCLIC-DI-AMP SODIUM SALT CRYSTAL” (Yamasa Corporation, priority 2018, published 2021).
Where two headings read alike, the source gives them in different places.

Legend:
[1] = type: physicochemical; conditions: for purity of crystal by HPLC: 105° C.
Experimental: The purity of the c-di-AMP sodium salt in the crystal α obtained in Example 1 was analyzed by high performance liquid chromatography. As a result, the purity of c-di-AMP was 100%. Note that the high performance liquid chromatography was performed under the following conditions.
Column: Hydrosphere C18 (manufactured by YMC, Inc.)
Eluent: 0.1 M TEA-P (pH 6.0)+4.5% ACN
Detection method: detection at UV260 nm
The crystals obtained in the above Example 1, Example 2, Example 4, and Reference Example were allowed to stand under conditions at 105° C. Some crystals were sampled over time, and an aqueous solution was prepared therefrom. Then, the purity of each crystal was analyzed by high performance liquid chromatography. FIG. 18 and Table 6 show the results obtained.

[2] = pH 5
Experimental: The purified c-di-AMP was used to prepare a c-di-AMP aqueous solution with an OD257 of 2500 and at a pH of 5.0, 5.2, 5.4, 5.6, 5.8, 6.0, or 6.5. Each resulting c-di-AMP solution (0.2 mL) with an OD257 of 2500 was heated to 30° C. Next, 1 mL of 99.5% (w/w) ethanol was gently added. The mixture was then tightly sealed and allowed to stand overnight or for several days at 30° C. to precipitate crystals. The resulting crystals so precipitated were filtered through a membrane filter to yield wet crystals.
Dilution allowed for preparation of a c-di-AMP aqueous solution at a low concentration.

stability under severe conditions [1]	purity of crystal by HPLC ([1]; Day 1) [%]	purity of crystal by HPLC ([1]; Day 2) [%]	purity of crystal by HPLC ([1]; Day 3) [%]	purity of crystal by HPLC ([1]; Day 4) [%]	purity of crystal by HPLC ([1]; Day 5) [%]	solubility [2]	Molecule	purity of crystal by HPLC ([1]; Day 0) [%]	purity of crystal by HPLC ([1]; Day 1, sodium salt) [%]	purity of crystal by HPLC ([1]; Day 2, sodium salt) [%]	purity of crystal by HPLC ([1]; Day 3, sodium salt) [%]	purity of crystal by HPLC ([1]; Day 4, sodium salt) [%]	purity of crystal by HPLC ([1]; Day 5, sodium salt) [%]
							c-di-AMP sodium salt [Example 2]	100.00	99.02	98.73	98.63	99.02	98.09
decreased stability	91.81	88.82	86.46	86.31	85.42		Nc1ncnc2c1ncn2[C@@H]1O[C@@H]2COP(=O)(O)O[C@H]3[C@@H](O)[C@H](n4cnc5c(N)ncnc54)O[C@@H]3COP(=O)(O)O[C@H]2[C@H]1O [Reference Example, c-di-AMP free acid, reference compound]	100.00					
							c-di-AMP sodium salt [Example 4]	100.00	99.65	99.35	99.14	99.09	98.93
						low	Nc1ncnc2c1ncn2[C@@H]1O[C@@H]2COP(=O)(O)O[C@H]3[C@@H](O)[C@H](n4cnc5c(N)ncnc54)O[C@@H]3COP(=O)(O)O[C@H]2[C@H]1O [c-di-AMP, Cyclic-di-AMP]						
							c-di-AMP sodium salt [Example 1]	100.00	98.75	97.98	97.98	97.87	97.15
